Earlier results in patent US20250311721A1, “UREA COMPLEXES OF ACTIVE INGREDIENTS” (priority 2022, published 2025).

O=C(NCCc1ncc(C(F)(F)F)cc1Cl)c1ccccc1C(F)(F)F [Fluopyram]
solubility in DMSO (DMSO): > 250 mg/mL
solubility in ethyl acetate (ethyl acetate): > 250 mg/mL
